Data reported in ChEMBL document CHEMBL3639203, “Macrocyclic indoles as hepatitis C virus inhibitors” (2013).
pIC50: −log10 of the molar value.

Target: Genome polyprotein (Hepatitis C virus genotype 1b (strain HC-J4) (HCV), UniProt O92972)
Experiment: Inhibition Assay: Inhibition assay using HCV NS5B.

Sequence of Genome polyprotein (O92972 2420-3010 limits assumed): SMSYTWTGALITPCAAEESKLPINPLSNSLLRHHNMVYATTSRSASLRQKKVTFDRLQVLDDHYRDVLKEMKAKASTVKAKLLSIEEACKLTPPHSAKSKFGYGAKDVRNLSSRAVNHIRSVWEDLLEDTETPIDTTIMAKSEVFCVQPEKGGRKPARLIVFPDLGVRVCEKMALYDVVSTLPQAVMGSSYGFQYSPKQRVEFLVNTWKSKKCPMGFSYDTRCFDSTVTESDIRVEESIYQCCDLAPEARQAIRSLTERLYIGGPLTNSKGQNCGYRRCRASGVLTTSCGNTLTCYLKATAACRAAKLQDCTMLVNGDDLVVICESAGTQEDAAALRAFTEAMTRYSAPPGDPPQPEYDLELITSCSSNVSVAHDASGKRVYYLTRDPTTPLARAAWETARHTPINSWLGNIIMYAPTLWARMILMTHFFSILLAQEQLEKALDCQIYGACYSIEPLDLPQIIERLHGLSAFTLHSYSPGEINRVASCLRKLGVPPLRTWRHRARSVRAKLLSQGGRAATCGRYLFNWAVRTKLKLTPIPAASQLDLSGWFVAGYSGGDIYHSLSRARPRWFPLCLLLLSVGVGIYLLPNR

CN1C/C=C\CCNC(=O)Cn2c(-c3ccc(Cl)cc3)c(C3CCCCC3)c3ccc(cc32)C(=O)NS1(=O)=O
pIC50: 6.77
